Assays:
[1] = biological target: T1, mouse GLP-1 receptor (Mus musculus, UniProt O35659)
T1 sequence (O35659 22-463): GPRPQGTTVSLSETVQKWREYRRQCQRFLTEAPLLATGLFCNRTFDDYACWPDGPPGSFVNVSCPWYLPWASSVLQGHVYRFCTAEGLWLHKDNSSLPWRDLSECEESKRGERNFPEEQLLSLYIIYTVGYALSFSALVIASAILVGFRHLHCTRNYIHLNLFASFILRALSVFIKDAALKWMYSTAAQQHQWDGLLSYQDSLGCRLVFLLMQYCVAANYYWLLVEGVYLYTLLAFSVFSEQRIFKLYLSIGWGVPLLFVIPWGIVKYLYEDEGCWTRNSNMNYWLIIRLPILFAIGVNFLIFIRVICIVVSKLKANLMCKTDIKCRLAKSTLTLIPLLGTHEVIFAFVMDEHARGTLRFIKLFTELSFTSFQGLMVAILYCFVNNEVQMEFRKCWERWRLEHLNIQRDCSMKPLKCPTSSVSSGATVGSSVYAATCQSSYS

[2] = biological target: T1, mouse GLP-1 receptor; assay: cell-based
[3] = biological target: NEP 24.11 (Homo sapiens, UniProt P08473); assay: in vitro; conditions: pH 8
Procedure: (§1) Stock solutions of the oligomers were prepared at a concentration of 400 µM in a solution of 50 mM HEPES buffer, 50 mM NaCl, 0.05% Tween-80, pH 8.0. Stock solution of NEP 24.11 was prepared at a concentration of 100 µg mL^−1 in water. Stability of oligomers to NEP 24.11 was assessed by conducting protease reaction in a 96-well plates at 20 °C. […] Each compound was also incubated in the absence of the enzyme (12 µL of HEPES buffer and 38 µL of oligomer). […] A portion of the quenched reaction solution was analysed by HPLC. The time course of peptide degradation was determined by integrating the area of each peak in a series of HPLC traces.

[4] = in vitro; conditions: isolated enzyme neprilysin, pH 8, % remaining analogue
Procedure: as §1

[5] = Pharmacokinetic evaluation in mice, i.v. (first study, peer review file Table 3); conditions: in vivo, normal C57BL/6J mice, male, n = 3, 25 μg/mouse (~250 nmol/kg) intravenous, first PK study
Procedure: Our current understanding is that […]
ways (See Figure below for reviewing only).
(1 picture or pasted object on this page, not shown here)
PK mice Table 3 | Pharmacokinetic evaluation in mice by i.v.
*** (m L/m i n/ k g) (mL/kg) (m in)
Formulation: 2 mg/mL in PB S 1X.
An additional table has been prepared (Table 3) and the following text was added:
“A pharmacokinetic study was also conducted in mice to access the pharmacologic […]
The manuscript by Fremaux et al. describes the synthesis and biological evaluation of α-pept ide- […]
In the design of those analogues, four […]
peptide chemistry and medicinal chemistry.
The authors should, however, revise the manuscript for typographic and gramatical errors. As an example, the following sentence should be revised:
The manuscript was revised for typographic and grammatical errors and the sentence above was […]

[6] = Pharmacokinetic evaluation in mice, i.v. (final study, Fig. 5); conditions: C57BL/6J mice, LC-MS/MS
Procedure: Data are mean ± SEM, n = 3. Source data are provided as a Source Data file
After different time points, mice were sacrificed and blood samples were collected. The plasma was separated by centrifugation and the samples were frozen at −80 °C before analysis. A volume of 400 µL of each sample of plasma was mixed with 1 ml of acetonitrile to precipitate the protein and extract the compound. The sample were then vortexed and centrifuged (15,000 × g, 5 min, 16 °C) to sediment the precipitated protein.

[7] = system: fasted normal mice (C57BL/6J); assay: Intraperitoneal glucose tolerance test (IPGTT) in fasted normal mice; format: in vivo, mouse; conditions: for AUC: IPGTT 5 min (Fig 4a), blood glucose AUC 0-120 min
Procedure: In a second study, an IPGTT was performed 30 min after i.v. injections of 1, 14 and the vehicle (Fig. 4b). […] A further IPGTT study was done with a glucose challenge after 2 h of the dosing to investigate the prolonged activity of hybrids 14, 22 and 23 (Fig. 4c).
Fig. 4 IPGTT studies in mice. a–d Intraperitoneal glucose tolerance test (IPGTT) at different time after dosing in fasted normal mice (C57BL/6J, male, 20–25 g). Dosage: 200 μg kg^−1 (50 nmol kg^−1) i.v. Formulation: 20 μg mL^−1 in PBS 1×. IPGTT: glucose 2 g kg^−1 i.p. at T0. a IPGTT after 5 min (n = 4). b IPGTT after 30 min (n = 6). c IPGTT after 2 h (n = 6). d IPGTT after 4 h (n = 3). Area under the curve (AUC) of the corresponding IPGTT curve. Data are mean ± SEM. […] Source data are provided as a Source Data file
After the acclimation period (at least 5 days), mice (male C57BL/6J mice (Charles River laboratories) 6 weeks old, 20–25 g) were randomized into groups according to their body weight. The mice were fasted for 6 h prior being acutely treated via i.v. route (5 µg per mouse i.v. (200 μg kg^−1, 50 nmol kg^−1)) formulated at 20 µg mL^−1 in PBS 1×. The IPGTTs were performed (glucose 2 g kg^−1 i.p.) 5 min, 30 min, 2 h or 4 h after dosing and blood glucose was measured at different time points after the glucose challenge.

[8] = male, C57BL/6J, mouse, in vivo, iv, 1 mg/kg, Concentration (plasma), animal 1
[9] = male, C57BL/6J, mouse, in vivo, iv, 1 mg/kg, Concentration (plasma), animal 2
[10] = male, C57BL/6J, mouse, in vivo, iv, 1 mg/kg, Concentration (plasma), animal 3
[11] = fasted C57BL/6J mice, 200 μg kg−1 (50 nmol kg−1) i.v., glucose 2 g kg−1 i.p., n = 6

Sequence of NEP 24.11 (P08473 whole entry): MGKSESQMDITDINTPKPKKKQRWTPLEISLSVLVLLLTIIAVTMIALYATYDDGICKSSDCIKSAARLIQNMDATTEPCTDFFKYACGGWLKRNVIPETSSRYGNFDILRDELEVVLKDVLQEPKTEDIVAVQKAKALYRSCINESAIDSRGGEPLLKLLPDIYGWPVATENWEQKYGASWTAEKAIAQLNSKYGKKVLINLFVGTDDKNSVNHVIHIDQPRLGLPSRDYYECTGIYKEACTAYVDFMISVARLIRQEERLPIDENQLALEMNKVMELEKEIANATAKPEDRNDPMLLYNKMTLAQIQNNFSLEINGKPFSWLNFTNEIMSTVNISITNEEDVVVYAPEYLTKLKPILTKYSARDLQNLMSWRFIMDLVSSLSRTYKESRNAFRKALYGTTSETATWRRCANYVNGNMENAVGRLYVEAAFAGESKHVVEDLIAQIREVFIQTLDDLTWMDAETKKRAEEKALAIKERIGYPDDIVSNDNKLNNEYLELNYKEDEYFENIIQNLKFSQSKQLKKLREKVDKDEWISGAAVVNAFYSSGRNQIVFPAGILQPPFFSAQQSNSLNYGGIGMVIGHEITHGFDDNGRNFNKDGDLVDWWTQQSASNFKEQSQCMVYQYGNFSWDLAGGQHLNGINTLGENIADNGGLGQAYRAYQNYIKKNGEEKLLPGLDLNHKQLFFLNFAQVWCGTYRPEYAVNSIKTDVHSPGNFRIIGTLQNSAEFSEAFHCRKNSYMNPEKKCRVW

For `CC[C@H](C)[C@H](NC(=O)[C@H](Cc1ccccc1)NC(=O)[C@H](CCC(=O)O)NC(=O)[C@H](CCCCN)NC(=O)[C@H](C)NC(=O)[C@H](C)NC(=O)[C@H](CCC(N)=O)NC(=O)CNC(=O)[C@H](CCC(=O)O)NC(=O)[C@H](CC(C)C)NC(=O)[C@H](Cc1ccc(O)cc1)NC(=O)[C@H](CO)NC(=O)[C@H](CO)NC(=O)[C@@H](NC(=O)[C@H](CC(=O)O)NC(=O)[C@H](CO)NC(=O)[C@@H](NC(=O)[C@H](Cc1ccccc1)NC(=O)[C@@H](NC(=O)CNC(=O)[C@H](CCC(=O)O)NC(=O)CNC(=O)[C@@H](N)Cc1c[nH]cn1)[C@@H](C)O)[C@@H](C)O)C(C)C)C(=O)N[C@@H](C)C(=O)N[C@@H](Cc1c[nH]c2ccccc12)C(=O)N[C@@H](CC(C)C)C(=O)N[C@H](C(=O)N[C@@H](CCCCN)C(=O)NCC(=O)N[C@@H](CCCNC(=N)N)C(=O)NCC(N)=O)C(C)C` [compound 1, GLP-1-G^2 (GG2)], the “LogEC50 (best-fit value)” value [1] was -9.62, the “Potency (%), percentage of potency compare to GLP-1-G^2” value ([1]; cAMP production, from EC50) was 100% and the EC50 [2] was 0.24 nM. For the same compound, the Emax ([2]; read-out: Top (best-fit value)) was 106%, the “% remaining analogue” value ([3]; isolated enzyme neprilysin, 22 h) was 0.6% and the “NEP 24.11 t1/2” value [3] was 216 min. The remaining at 1 h [4] was 77.5%, the remaining at 2 h [4] was 63.1% and the remaining at 4 h [4] was 47.1%. It also gave a remaining at 6 h [4] of 32.6%, a clearance ([5]; 2 mg/mL in PBS 1X) of 26.9 L/h/kg and a half-life [5] of 7 min. For the same compound, the Vd ([5]; read-out: Vz) was 4.48 L/kg, the “Concentration (plasma)” value ([6]; time 3 min, animal 3) was 3.68 µM and the “Concentration (plasma)” value ([6]; time 15 min, animal 3) was 0.06 µM. For the same compound, the “Concentration (plasma)” value ([6]; time 30 min, animal 2) was 0.01 µM, the “Concentration (plasma)” value ([6]; time 30 min, animal 3) was 0 µM and the level at time molar at 1 min [6, 8] was 7.92 µM. The level at time molar at 1 min [6, 9] was 8.37 µM, the level at time molar at 1 min [6, 10] was 10.8 µM and the level at time molar at 0.05 h ([6]; male, C57BL/6J, mouse, in vivo, iv, 1 mg/kg, Concentration (plasma), time 3 min, animal 1) was 3.74 µM. It also gave a level at time molar at 0.05 h ([6]; male, C57BL/6J, mouse, in vivo, iv, 1 mg/kg, Concentration (plasma), time 3 min, animal 2) of 3.5 µM, a level at time molar at 5 min [6, 8] of 1.78 µM and a level at time molar at 5 min [6, 9] of 2.61 µM. For the same compound, the level at time molar at 5 min [6, 10] was 2.54 µM, the level at time molar at 10 min [6, 8] was 0.36 µM and the level at time molar at 10 min [6, 9] was 0.43 µM. The level at time molar at 10 min [6, 10] was 0.38 µM, the level at time molar at […] ([6]; male, C57BL/6J, mouse, in vivo, iv, 1 mg/kg, Concentration (plasma), time 15 min, animal 1) was 0.1 µM and the level at time molar at […] ([6]; male, C57BL/6J, mouse, in vivo, iv, 1 mg/kg, Concentration (plasma), time 15 min, animal 2) was 0.06 µM. It also gave a level at time molar at 0.5 h ([6]; male, C57BL/6J, mouse, in vivo, iv, 1 mg/kg, Concentration (plasma), time 30 min, animal 1) of 0.01 µM, an AUC ([7]; mean of n = 4, 2018-03-08) of 21223 mg·min/dL and an AUC ([7]; single animal, 1st of group) of 20535 mg·min/dL. The AUC ([7]; single animal, 2nd of group) was 25208 mg·min/dL, the AUC ([7]; single animal, 3rd of group) was 19110 mg·min/dL and the AUC ([7]; single animal, 4th of group) was 20040 mg·min/dL. For the same compound, the “activity in IPGTT 5 min after dosing” value ([7]; fasted C57BL/6J mice, 200 μg kg−1 (50 nmol kg−1) i.v., glucose 2 g kg−1 i.p., n = 4) was “both analogues were active”, the “activity in IPGTT 30 min after dosing” value [7, 11] was “already inactive” and the “activity in IPGTT 2 h after dosing” value [7, 11] was “IPGTT curve similar to the vehicle”.
